Biological target: T1, SHP2 protein (Homo sapiens, UniProt Q06124)
T1 sequence (Q06124 1-593): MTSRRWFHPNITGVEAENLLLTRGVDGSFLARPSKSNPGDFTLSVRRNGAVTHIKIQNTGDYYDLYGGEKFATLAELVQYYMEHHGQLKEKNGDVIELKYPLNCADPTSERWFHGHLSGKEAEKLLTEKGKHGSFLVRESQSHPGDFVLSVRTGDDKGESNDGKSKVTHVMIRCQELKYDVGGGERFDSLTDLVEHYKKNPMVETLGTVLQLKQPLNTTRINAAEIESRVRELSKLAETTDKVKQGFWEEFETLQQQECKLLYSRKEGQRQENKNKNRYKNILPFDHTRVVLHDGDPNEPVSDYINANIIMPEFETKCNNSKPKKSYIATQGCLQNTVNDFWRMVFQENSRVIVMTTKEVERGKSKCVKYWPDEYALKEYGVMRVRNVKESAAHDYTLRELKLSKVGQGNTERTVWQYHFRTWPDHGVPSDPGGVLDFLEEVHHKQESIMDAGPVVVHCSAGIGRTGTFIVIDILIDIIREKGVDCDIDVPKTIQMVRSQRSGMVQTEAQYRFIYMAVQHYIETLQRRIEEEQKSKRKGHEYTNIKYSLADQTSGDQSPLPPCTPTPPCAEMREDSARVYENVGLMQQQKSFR
Assay: Measurement of SHP2 protein degradation in MV-4-11 cells (western blotting)
Format: cell-based
Design: endogenous in cells
Settings: harvested after 24 hours
Procedure, shortened: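 MV-4-11 cells in IMDM/5% FBS were exposed to compound at final 0.01, 0.1, 1 μM or 0.001, 0.01, 0.1 μM for 24 h, DMSO as negative control. BCA-normalised lysates were immunoblotted for SHP2 with GAPDH as loading control, read on LI-COR Odyssey.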

Cc1ncsc1-c1ccc(CNC(=O)[C@@H]2C[C@@H](O)CN2C(=O)[C@@H](NC(=O)C2(F)CC2)C(C)(C)C)c(OCCN2CCN(CCNc3cccc(Sc4cnc(N5CCC(C)(CN)CC5)cn4)c3Cl)CC2)c1 [Example 2, (2S,4R)—N-(2-(2-(4-(2-((3-((5-(4-(aminomethyl)-4-methylpiperidin-1-yl)pyrazin-2-yl)thio)-2-chlorophenyl)amino)ethyl)piperazin-1-yl)ethoxy)-4-(4-methylthiazol-5-yl)benzyl)-1-((S)-2-(1-fluorocyclopropane-1-carboxamido)-3,3-dimethylbutanoyl)-4-hydroxypyrrolidine-2-carboxamide]
SHP2% degradation (0.01 μM): 11.8% | SHP2% degradation (0.1 μM): 80.3%

Cc1ncsc1-c1ccc(CNC(=O)[C@@H]2C[C@@H](O)CN2C(=O)[C@@H](NC(=O)C2(F)CC2)C(C)(C)C)c(OCCN2CCN(CC3CCN(c4nccc(Sc5cnc(N6CCC(C)(CN)CC6)cn5)c4Cl)CC3)CC2)c1 [Example 8, (2S,4R)—N-(2-(2-(4-((1-(4-((5-(4-(aminomethyl)-4-methylpiperidin-1-yl)pyrazin-2-yl)thio)-3-chloropyridin-2-yl)piperidin-4-yl)methyl)piperazin-1-yl)ethoxy)-4-(4-methylthiazol-5-yl)benzyl)-1-((S)-2-(1-fluorocyclopropane-1-carboxamido)-3,3-dimethylbutanoyl)-4-hydroxypyrrolidine-2-carboxamide]
SHP2% degradation (0.01 μM): 11.7% | SHP2% degradation (0.1 μM): 81.9%

Cc1ncsc1-c1ccc(CNC(=O)[C@@H]2C[C@@H](O)CN2C(=O)[C@@H](NC(=O)C2(F)CC2)C(C)(C)C)c(O[C@H]2CC[C@H](C(=O)N3CCN(c4nccc(Sc5cnc(N6CCC(C)(CN)CC6)cn5)c4Cl)CC3)CC2)c1 [Example 26, (2S,4R)—N-(2-(((1R,4S)-4-(4-(4-((5-(4-(aminomethyl)-4-methylpiperidin-1-yl)pyrazin-2-yl)thio)-3-chloropyridin-2-yl)piperazine-1-carbonyl)cyclohexyl)oxy)-4-(4-methylthiazol-5-yl)benzyl)-1-((S)-2-(1-fluorocyclopropane-1-carboxamido)-3,3-dimethylbutanoyl)-4-hydroxypyrrolidine-2-carboxamide]
SHP2% degradation (0.01 μM): 52.3% | SHP2% degradation (0.1 μM): 96.1%

Cc1ncsc1-c1ccc(CNC(=O)[C@@H]2C[C@@H](O)CN2C(=O)[C@@H](NC(=O)C2(F)CC2)C(C)(C)C)c(O[C@H]2CC[C@H](C(=O)N3CC(Nc4cccc(Sc5cnc(N6CCC7(CC6)CO[C@@H](C)[C@H]7N)cn5)c4Cl)C3)CC2)c1 [Example 13, (2S,4R)—N-(2-(((1R,4S)-4-(3-((3-((5-((3S,4S)-4-amino-3-methyl-2-oxa-8-azaspiro[4.5]decan-8-yl)pyrazin-2-yl)thio)-2-chlorophenyl)amino)azetidine-1-carbonyl)cyclohexyl)oxy)-4-(4-methylthiazol-5-yl)benzyl)-1-((S)-2-(1-fluorocyclopropane-1-carboxamido)-3,3-dimethylbutanoyl)-4-hydroxypyrrolidine-2-carboxamide]
SHP2% degradation (0.01 μM): 93.8% | SHP2% degradation (0.1 μM): 99.5%

Cc1ncsc1-c1ccc(CNC(=O)[C@@H]2C[C@@H](O)CN2C(=O)[C@@H](NC(=O)C2(F)CC2)C(C)(C)C)c(OC2CCN(C(=O)C3(O)CCN(c4nccc(Sc5cnc(N6CCC(C)(CN)CC6)cn5)c4Cl)CC3)CC2)c1 [Example 70, (2S,4R)—N-(2-((1-(1-(4-((5-(4-(aminomethyl)-4-methylpiperidin-1-yl)pyrazin-2-yl)thio)-3-chloropyridin-2-yl)-4-hydroxypiperidine-4-carbonyl)piperidin-4-yl)oxy)-4-(4-methylthiazol-5-yl)benzyl)-1-((S)-2-(1-fluorocyclopropane-1-carboxamido)-3,3-dimethylbutanoyl)-4-hydroxypyrrolidine-2-carboxamide]
SHP2% degradation (0.01 μM): 84.5% | SHP2% degradation (0.1 μM): 99.9%

Cc1ncsc1-c1ccc(CNC(=O)[C@@H]2C[C@@H](O)CN2C(=O)[C@@H](NC(=O)C2(F)CC2)C(C)(C)C)c(OCCN2CCC(C(=O)N3CCN(c4nccc(Sc5cnc(N6CCC(C)(CN)CC6)cn5)c4Cl)CC3)CC2)c1 [Example 52, (2S,4R)—N-(2-(2-(4-(4-(4-((5-(4-(aminomethyl)-4-methylpiperidin-1-yl)pyrazin-2-yl)thio)-3-chloropyridin-2-yl)piperazine-1-carbonyl)piperidin-1-yl)ethoxy)-4-(4-methylthiazol-5-yl)benzyl)-1-((S)-2-(1-fluorocyclopropane-1-carboxamido)-3,3-dimethylbutanoyl)-4-hydroxypyrrolidine-2-carboxamide]
SHP2% degradation (0.01 μM): 20.5% | SHP2% degradation (0.1 μM): 91.9%

Cc1ncsc1-c1ccc(CNC(=O)[C@@H]2C[C@@H](O)CN2C(=O)[C@@H](NC(=O)C2(F)CC2)C(C)(C)C)c(O[C@H]2CC[C@H](CN3CCC(Nc4cccc(Sc5cnc(N6CCC(C)(CN)CC6)cn5)c4Cl)CC3)CC2)c1 [Example 6, (2S,4R)—N-(2-(((1R,4S)-4-((4-((3-((5-(4-(aminomethyl)-4-methylpiperidin-1-yl)pyrazin-2-yl)thio)-2-chlorophenyl)amino)piperidin-1-yl)methyl)cyclohexyl)oxy)-4-(4-methylthiazol-5-yl)benzyl)-1-((S)-2-(1-fluorocyclopropane-1-carboxamido)-3,3-dimethylbutanoyl)-4-hydroxypyrrolidine-2-carboxamide]
SHP2% degradation (0.01 μM): 14.8% | SHP2% degradation (0.1 μM): 56.9%

Cc1ncsc1-c1ccc(CNC(=O)[C@@H]2C[C@@H](O)CN2C(=O)[C@@H](NC(=O)C2(F)CC2)C(C)(C)C)c(OC2CCN(C(=O)CC3CCN(c4nccc(Sc5cnc(N6CCC(C)(CN)CC6)cn5)c4Cl)CC3)CC2)c1 [Example 71, (2S,4R)—N-(2-((1-(2-(1-(4-((5-(4-(aminomethyl)-4-methylpiperidin-1-yl)pyrazin-2-yl)thio)-3-chloropyridin-2-yl)piperidin-4-yl)acetyl)piperidin-4-yl)oxy)-4-(4-methylthiazol-5-yl)benzyl)-1-((S)-2-(1-fluorocyclopropane-1-carboxamido)-3,3-dimethylbutanoyl)-4-hydroxypyrrolidine-2-carboxamide]
SHP2% degradation (0.01 μM): 60.0% | SHP2% degradation (0.1 μM): 99.4%

Cc1ncsc1-c1ccc(CNC(=O)[C@@H]2C[C@@H](O)CN2C(=O)[C@@H](NC(=O)C2(F)CC2)C(C)(C)C)c(OC2CC3(CCN(C(=O)C4CCN(c5nccc(Sc6cnc(N7CCC(C)(CN)CC7)cn6)c5Cl)CC4)CC3)C2)c1 [Example 57, (2S,4R)—N-(2-((7-(1-(4-((5-(4-(aminomethyl)-4-methylpiperidin-1-yl)pyrazin-2-yl)thio)-3-chloropyridin-2-yl)piperidine-4-carbonyl)-7-azaspiro[3.5]nonan-2-yl)oxy)-4-(4-methylthiazol-5-yl)benzyl)-1-((S)-2-(1-fluorocyclopropane-1-carboxamido)-3,3-dimethylbutanoyl)-4-hydroxypyrrolidine-2-carboxamide]
SHP2% degradation (0.01 μM): 65.7% | SHP2% degradation (0.1 μM): 96.8%
